Measured values published in ChEMBL document CHEMBL4765246, “Design, synthesis and biological evaluation of quinoxaline compounds as anti-HIV agents targeting reverse transcriptase enzyme” (Eur J Med Chem, 2020).
pEC50, pIC50: −log10 of the molar value.

Key:
[1] = (§1) Inhibition of wild type recombinant HIV-1 subtype B BH10 p66/p51 reverse transcriptase heterodimer expressed in Escherichia coli BL21 (DE3) assessed as inhibition of dTTP incorporation on poly(rA)-oligo(dT) template primer duplex preincubated with enzyme for 2 mins followed by incubation with poly(A)-oligo(dT) templates for 2 hrs by flourescence assay method; parameters: species or system Human immunodeficiency virus type 1 BH10
[2] = Cytotoxicity against human MT2 cells assessed as reduction in cell viability measured after 4 days by Trypan blue assay; type: cell-based; details: time 4 day
[3] = system: Human immunodeficiency virus type 1 BH10; assay: as §1, with “duplex at 10 uM” for “duplex”; details: time 122.0 min
[4] = system: Human immunodeficiency virus type 1 BH10; assay: Selectivity for inhibition of wild type recombinant HIV-1 subtype B BH10 p66/p51 reverse transcriptase heterodimer expressed in Escherichia coli BL21 (DE3) at 50 uM over inhibition of recombinant HIV-1 subtype B BH10 p66/p51 reverse transcriptase heterodimer K103N mutant at 50 uM by fluorescence based assay
[5] = system: Human immunodeficiency virus type 1 BH10; assay: as §1, with “duplex at 100 uM” for “duplex”; details: time 122.0 min
[6] = Anti-HIV-1 activity against HTLV-3B infected in human MT2 cells assessed as reduction in syncytium formation by measuring reduction in p24 antigen production measured after 4 days by ELISA method; type: functional, cell-based; details: Human immunodeficiency virus 1, HTLV-3B, MT2, 96 h
[7] = system: Human immunodeficiency virus type 1 BH10; assay: as §1, with “of” for “of wild type”, “K103N mutant” for “expressed in Escherichia coli BL21 (DE3)”, “duplex at 50 uM” for “duplex”; details: time 122.0 min
[8] = Selectivity index, ratio of CC50 for human MT2 cells to EC50 for anti-HIV-1 activity against HTLV-3B infected in human MT2 cells; type: toxicity, cell-based; details: read-out: Ratio CC50/EC50

SMILES	pIC50 [1]	CC50 at 96 h [2]	inhibition [3]	Selectivity ratio [4]	inhibition [5]	pEC50 [6]	inhibition [7]	selectivity ratio [8]
CC(C)Cc1nc2ccccc2[nH]c1=O	4.64	134 µM	15%	16	73%	< 5.00	5%	–
O=C1CN(C(=O)CCl)c2ccccc2N1	–	–	24%	–	32%	–	–	–
Oc1nc2ccccc2nc1O	–	–	8%	–	1%	–	–	–
CCC(=O)N1CC(=O)Nc2ccccc21	6.20	98.6 µM	91%	2	99%	8.51	47%	31800
CCC(=O)N1c2ccccc2NC(=O)[C@@H]1C	–	–	7%	–	23%	–	–	–
O=C1CN(C(=O)c2ccccc2)c2ccccc2N1	–	–	14%	–	33%	–	–	–
C[C@H]1C(=O)Nc2ccccc2N1C(=O)CCCl	–	–	15%	–	28%	–	–	–
Cc1ccnc2c1NC(=O)c1cccnc1N2C1CC1 [NEVIRAPINE]	6.89	96.2 µM	91%	2	98%	8.17	50%	14400
CC(C)COC(=O)N1CC(=O)Nc2ccccc21	–	262 µM	20%	–	46%	< 5.00	–	–
CC(C)[C@H]1C(=O)Nc2ccccc2N1C(=O)CCl	–	–	5%	–	12%	–	–	–
CCOC(=O)CCc1nc2ccccc2nc1O	–	–	15%	–	12%	–	–	–
CC(=O)N1CC(=O)Nc2ccccc21	–	–	7%	–	56%	–	–	–
C[C@H]1CNc2ccccc2N1C(=O)CCl	–	–	8%	–	8%	–	–	–
CC(C)[C@H]1C(=O)Nc2ccccc2N1C(=O)CCCl	–	–	7%	–	7%	–	–	–
O=C(O)CCc1nc2ccccc2[nH]c1=O	–	–	20%	–	15%	–	–	–
CC(C)OC(=O)N1CC(=O)Nc2ccccc21	–	–	20%	–	19%	–	–	–
Oc1nc2ccccc2nc1Cc1ccccc1	–	–	10%	–	26%	–	–	–
Cc1nc2ccccc2nc1O	–	–	3%	–	1%	–	–	–
COC(=O)CCc1nc2ccccc2nc1O	–	–	8%	–	23%	–	–	–
O=C1CN(C(=O)CCCl)c2ccccc2N1	–	–	12%	–	26%	–	–	–
CC(C)COC(=O)N1c2ccccc2NC(=O)[C@@H]1C	4.19	117 µM	37%	5	64%	5.80	13%	74
CC(C)c1nc2ccccc2[nH]c1=O	–	–	12%	–	17%	–	–	–
CC(C)C[C@H]1C(=O)Nc2ccccc2N1C(=O)CCCl	–	–	10%	–	20%	–	–	–
CC(C)OC(=O)CCc1nc2ccccc2nc1O	–	–	21%	–	25%	–	–	–
O=C1CN(S(=O)(=O)c2ccccc2)c2ccccc2N1	–	–	14%	–	12%	–	–	–
CC(C)COC(=O)N1c2ccccc2NC(=O)[C@@H]1CC(C)C	4.17	–	22%	3	51%	–	20%	–
